Test results taken from patent US8551958B2, “Galactosylated pro-drugs of non-steroidal anti-inflammatories with improved pharmacokinetic characteristics and reduced toxicity of the starting drug” (Stewart Italia Srl, priority 2008, dated 2013).

What was measured:
[1] = Chemical stability of the pro-drug (phosphate buffer pH 7.4; HCl 0.1 N pH 1), HPLC; assay type: physicochemical; settings: in the dark; for pH 7.4 T½: phosphate buffer at pH 7.4, 37° C.; for pH 1 T½: solution of HCl 0.1 N (pH 1), 37° C.
Protocol: For the stability study, the solutions of pro-drug were prepared by dissolving an aliquot of Ketogal in a phosphate buffer at pH 7.4, or else in a solution of HCl 0.1 N (pH 1), as regards chemical stability, or else in a plasma specimen, for enzymatic stability. The solutions were kept in the dark, at a temperature of 37° C., for 24 hours. After each hour an aliquot of specimen was taken. In the case of plasma, said aliquot was previously extracted with acetonitrile (1:2), “vortexed” and centrifuged at 3000 r.p.m. for 10 min. The supernatant was taken and used for analysis at HPLC with diode detector. The half-lives for chemical stability and enzymatic stability were calculated by quantizing, in time, the percentage of pro-drug that remained in solution. For the chromatographic separations, a 1090L HPLC (Hewlett-Packard, Palo Alto, USA) was used, coupled to a diode detector HP 1040A. A Phenomenex Luna C18 (250×4.6 mm, 5 μm) column was used. The wavelength used was 313 nm. The mobile phase was constituted by acetonitrile and an aqueous solution of phosphoric acid […] (pH 3) in the ratio of 68:32. The flow was 1 mL/min, with an injection volume of 20 μl. All the reagents and the solvents used were of analytical degree. The distilled and deionized water was purified by means of a Milli Q system (Millipore). The retention times of the compounds were: ketorolac: 6.7 min; Ketogal: 3.8 min. As internal standard tolmetin was used (9.3 min). The straight line of calibration for quantification of the compounds was constructed using standard solutions with concentrations of between 0.1 and 100 μg/ml. The linearity was obtained with a coefficient of regression (R^2) of approximately 0.998.
For the study of the stability, the solutions of pro-drug were prepared by dissolving an aliquot of Flugal in a phosphate buffer at pH 7.4, as regards chemical stability, or else in a plasma specimen, for enzymatic stability. The solutions were kept in the dark, at a temperature of 37° C., for 24 hours. After each hour an aliquot of specimen was taken. In the case of the plasma said amount was previously extracted with acetonitrile (1:2), “vortexed”, and centrifuged at 3000 r.p.m. for 10 min. The supernatant was taken and used for analysis at HPLC with diode detector. The half-lives for the chemical stability and enzymatic stability were calculated by quantizing, in time, the percentage of pro-drug that remained in solution. A 1090L HPLC (Hewlett-Packard, Palo Alto, USA) coupled to a diode detector HP 1040A was used for the chromatographic separations. The column used was a Supelcosil LC-18, 250×4.6 mm, particle size […]. The volume injected was […] and the flow of 1 mL/min. The mobile phase was constituted by a mixture of aqueous CH3CN/H3PO4 1 mM (pH 3) [32:68]. For the quantitative determination reading was made at 250 nm. The retention times of the various compounds involved in the analysis were: for Flugal 6 min and for flurbiprofen 11 min. All the reagents and the solvents used were of analytical degree. The distilled and deionized water was purified by means of a Milli Q system (Millipore). The straight line of calibration for the quantification of the compounds was constructed using standard solutions with concentrations of between 0.1 and 100 μg/ml. Linearity was obtained with a coefficient of regression (R^2) of approximately 0.998. From the results of said analysis (illustrated in Table 3) it emerges that the pro-drug Flugal has a good chemical stability and a good susceptibility to enzymatic hydrolysis.
Chemical stability was assessed also at pH 1.0 in a solution of HCl 0.1N as described.
For the stability study, the solutions of pro-drug were prepared by dissolving an aliquot of Okigal in a phosphate buffer at pH 7.4, or else in a solution of HCl 0.1 N (pH 1), as regards chemical stability, or else in a plasma specimen, for enzymatic stability. The solutions were kept in the dark, at a temperature of 37° C., for 24 hours. […]

[2] = Enzymatic stability in plasma, HPLC; assay type: in vitro ADME; settings: plasma specimen, 37° C., in the dark; read-out: Plasma T½ (converted)
Protocol: For the stability study, the solutions of pro-drug were prepared by dissolving an aliquot of Ketogal in a phosphate buffer at pH 7.4, or else in a solution of HCl 0.1 N (pH 1), as regards chemical stability, or else in a plasma specimen, for enzymatic stability. The solutions were kept in the dark, at a temperature of 37° C., for 24 hours. After each hour an aliquot of specimen was taken. In the case of plasma, said aliquot was previously extracted with acetonitrile (1:2), “vortexed” and centrifuged at 3000 r.p.m. for 10 min. The supernatant was taken and used for analysis at HPLC with diode detector. The half-lives for chemical stability and enzymatic stability were calculated by quantizing, in time, the percentage of pro-drug that remained in solution. For the chromatographic separations, a 1090L HPLC (Hewlett-Packard, Palo Alto, USA) was used, coupled to a diode detector HP 1040A. A Phenomenex Luna C18 (250×4.6 mm, 5 μm) column was used. The wavelength used was 313 nm. The mobile phase was constituted by acetonitrile and an aqueous solution of phosphoric acid […] (pH 3) in the ratio of 68:32. The flow was 1 mL/min, with an injection volume of 20 μl. All the reagents and the solvents used were of analytical degree. The distilled and deionized water was purified by means of a Milli Q system (Millipore). […] The straight line of calibration for quantification of the compounds was constructed using standard solutions with concentrations of between 0.1 and 100 μg/ml. […]
For the study of the stability, the solutions of pro-drug were prepared by dissolving an aliquot of Flugal in a phosphate buffer at pH 7.4, as regards chemical stability, or else in a plasma specimen, for enzymatic stability. […] The half-lives for the chemical stability and enzymatic stability were calculated by quantizing, in time, the percentage of pro-drug that remained in solution. […] For the quantitative determination reading was made at 250 nm. […] The straight line of calibration for the quantification of the compounds was constructed using standard solutions with concentrations of between 0.1 and 100 μg/ml. […]

[3] = system: mouse carrageenan paw oedema; assay: Carrageenan oedema test; assay type: in vivo, mice; settings: for Carrageenan-induced oedema, first phase (0-6 h): pro-drug 16.3 mg/kg oral; for Oedema formation after parent drug: 10 mg/kg oral
Protocol: Anti-inflammatory activity was tested by means of the carrageenan oedema test. The mice were divided into groups of six. The initial volumes of the leg of all the animals were measured using a plethysmometer. The oedema is induced in the leg by means of sub-plantar injection of 50 μl of saline solution containing 1% of carrageenan. The volume of the leg was measured at different time intervals. Said experimental model consists of two phases: a first, acute, phase lasting 6 hours and a second, chronic, phase, up to 72 hours.
The anti-inflammatory activity of the physical mixture of ketorolac and galactose was evaluated with the carrageenan induced mice hind paw edema assay, as described for ketogal. […]
The carrageenan induced mice hind paw oedema assay described by D'Agostino et al. (2007) was used to evaluate the acute anti-inflammatory activity of the conjugate. Mice were divided into control and test groups of six animals each. Initial paw volumes of all animals were measured using a plethysmometer apparatus (Ugo Basile, Milan, Italy) before treatment. Paw oedema was induced by a subplantar injection of 50 μL of saline containing 1% λ-carrageenan into the right hind paw. […] free acid and ketogal were orally administrated 1 h before carrageenan challenge. Paw volume was measured at different time intervals by plethysmometer. The increase in paw volume was evaluated as the difference between the paw volume measured at each time point and the basal paw volume measured immediately before carrageenan injection.

[4] = system: mouse carrageenan paw oedema; assay: Carrageenan oedema test; assay type: in vivo, mice; settings: pro-drug 16.3 mg/kg oral, 1 h before carrageenan
[5] = system: mice; assay: Ulcerogenicity studies, flurbiprofen and flugal (NSAID-induced gastric damage in mice); assay type: in vivo; settings: oral, after 4 h; for gastric lesion score / n. of ulcers: flurbiprofen 10 mg/kg, flugal 16.6 mg/kg (table); for n. of ulcers: fasted mice
Protocol: NSAID-induced gastric damage in mice was evaluated following the procedure described by Chan et al. (1995). […] After 4 h of treatment, mice were euthanized and the stomach was excised along its greater curvature and rinsed with normal saline. The mucosa was then examined by means of a magnifying glass for the presence of irritation or frank hemorrhagic lesions (ulcers). Irritation was assigned a score of 1, and ulcerations were scored according to their length (a score of 5 for lesions with a length between 1 and 3 mm; a score of 10 for lesions greater than 3 mm). The sum of total scores was used for comparison.

[6] = system: male Swiss mice; assay: Ulcerogenicity studies, ketorolac and Ketogal (gastric lesions); assay type: in vivo; settings: oral, ketorolac 10.0 mg/kg, Ketogal 16.3 mg/kg, after 4 hours
Protocol: The gastric lesions were evaluated in male Swiss mice. To the fasted animals (16-18 h) were administered, by oral route, ketorolac (10 mg/kg), Ketogal (16.3 mg/kg), or the vehicle. After 4 hours, the mice were sacrificed and the stomach removed, cut along the major curvature, washed with physiological solution, and the mucous was examined for evaluation of the presence of petechias and/or gastric lesions. A “score” of 1 was assigned to the petechias, and a “score” based on the diameter (a “score” of 5 for lesions of a diameter of less than 1 mm; a “score” of 10 for lesions with a diameter of more than 1 mm) was, instead, assigned to the lesions.

[7] = system: writhing induced by acetic acid; assay: Writhing test induced by acetic acid; assay type: in vivo, mice; settings: 60 min prior to acetic acid
Protocol: The analgesic activity was studied using the “writhing test” using acetic acid and using magnesium sulphate. To the mice there was administered by intraperitoneal route 1 mL of solution at 1% of acetic acid, and the number of writhing events was evaluated for 20 min, after 5 min from administration of the solution of acetic acid. Writhing is defined as a contraction of the abdominal muscles accompanied by elongation of the body and of the rear legs. Ketorolac and Ketogal were administered by oral route 60 min prior to administration of the solution of acetic acid. The analgesic effect is expressed in number of writhing events as compared to the control.

[8] = system: writhing induced by magnesium sulphate; assay: Writhing induced by magnesium sulphate (visceral pain); assay type: in vivo, mouse; settings: ketorolac 0.01 to 10 mg/kg, Ketogal in equimolar dose; 1 hour before magnesium sulphate 120 mg/kg
Protocol: In order to determine whether ketorolac and Ketogal are able to inhibit visceral pain, the effects of these compounds on “writhing” induced by magnesium sulphate were tested. Magnesium sulphate induces a reversible response when injected by intraperitoneal route in the mouse. The administration of 120 mg/kg of magnesium sulphate induces an average of 6±0.9 episodes of “writhing” in the mouse (n=6).

[9] = system: male Swiss mice; assay: Chronic and sub-chronic experiments: liver, kidney and stomach examination; assay type: in vivo; settings: ketorolac 10 mg/Kg, ketogal 16.3 mg/Kg, oral
Protocol: (§1) Animals were sacrificed and then liver, stomach and kidney were collected in glass tubes and analysed histologically and biochemically.
Liver samples were fixed in 10% buffered formalin and embedded in paraffin, sliced, and stained with hematoxylin & eosin (H&E) for assessment of liver pathology. […] To confirm histological data, western blot analysis for TNF-alpha, IL-6 and malonyldialdehyde assay were then performed in liver lysates.

[10] = system: COX-1; assay: Western blot, stomach, COX-1 protein expression; assay type: in vivo, mice; settings: ketorolac 10 mg/Kg, ketogal 16.3 mg/Kg, oral, 3, 5 and 7 days; versus control stomachs
Description: as §1

[11] = system: PGE synthase; assay: Western blot, stomach, PGE synthase protein expression; assay type: in vivo, mice; settings: ketorolac 10 mg/Kg, ketogal 16.3 mg/Kg, oral, 3, 5 and 7 days
Description: as §1

[12] = system: PPAR-gamma; assay: Western blot, stomach, PPAR-gamma protein expression; assay type: in vivo, mice; settings: ketorolac 10 mg/Kg, ketogal 16.3 mg/Kg, oral, 3, 5 and 7 days
Description: as §1

In the case of CC(C(=O)OCC1O[C@H](O)C(O)C(O)[C@H]1O)c1cccc(C(=O)c2ccccc2)c1 (stereo partly drawn) [Okigal, Ketoprofen-D-galactos-6′-yl ester], the “pH 7.4 T½” value [1] is reported as over 8 hours, the “pH 1 T½” value [1] is reported as over 8 hours and the half-life [2] is reported as 4 h. The “Carrageenan-induced oedema, first phase (0-6 h)” value ([3]; 1 h before carrageenan) was “slightly modify carrageenan-induced oedema” and the “Carrageenan-induced oedema, second phase (24-96 h)” value [4] was “significant anti-inflammatory effect”.
For CC(C(=O)OCC1O[C@H](O)C(O)[C@@H](O)[C@H]1O)c1ccc(-c2ccccc2)c(F)c1 (stereo partly drawn) [Flugal, flurbiprofen-D-galactos-6′-yl ester], the “pH 7.4 T½” value [1] was over 8 hours, the “pH 1 T½” value [1] was over 8 hours and the half-life [2] was 1 h. The “Ulcerogenic activity (in words)” value ([5]; flugal 16.3 mg/kg) was “caused only irritation without ulceration”, the gastric lesion score [5] was 0 and the n. of ulcers [5] was 1 ± 1. The “Carrageenan-induced oedema, first phase (0-6 h)” value ([3]; 1 h before carrageenan) was “did not modify carrageenan-induced oedema” and the “Carrageenan-induced oedema, second phase (24-96 h)” value [4] was “significant anti-inflammatory effect”.
In the case of O=C(c1ccccc1)c1ccc2n1CC[C@@H]2C(=O)O [ketorolac, reference compound], the Degree of ulcerogenicity ([6]; score 1 petechias, 5 or 10 lesions) is reported as 10, the Number of ulcers ([6]; fasted mice) is reported as 4 ± 0.4 and the “Dosages with significant analgesic effect (p<0.01)” value ([7]; ketorolac by oral route) is reported as “significant at the dosages of 1 and 10 mg/kg”. The “Analgesic effect (number of writhing events compared to control)” value ([7]; oral, ketorolac 0.01-10 mg/kg, Ketogal 0.0163-16.3 mg/kg) was “dose-dependent analgesic effect”, the “Inhibition of writhing induced by magnesium sulphate” value [8] was “able to inhibit this response in a dose-dependent way” and the “Formation of oedema, first phase, lowest dose” value ([3]; ketorolac 0.1 mg/kg oral, first phase) was “had no effect”. The Kidney histology ([9]; after 3, 5 and 7 days) was “normal kidney histology”, the “Stomach samples, ulcerogenicity” value ([9]; for 3 days) was “high ulcerogenicity degree” and the “Gastric COX-1 protein expression” value [10] was “significantly inhibited”. For the same compound, the “Gastric PGE synthase protein expression” value [11] was “significantly reduced” and the “Gastric PPAR-gamma protein expression” value [12] was “significantly reduced”.
For CC(C(=O)O)c1ccc(-c2ccccc2)c(F)c1 (centres unmarked) [flurbiprofen, reference compound], the gastric lesion score [5] was 2, the n. of ulcers [5] was 3 ± 1.5 and the “Oedema formation after parent drug” value ([3]; 1 h before carrageenan) was “significantly inhibited oedema formation until 48 h”.
In the case of O=C[C@H](O)[C@@H](O)[C@@H](O)[C@H](O)CO [galactose, reference compound], the “Anti-inflammatory activity of galactose alone” value ([3]; galactose 16.3 mg/kg oral, 1 h before carrageenan) is reported as “no anti-inflammatory activity”.
With CC(C(=O)O)c1cccc(C(=O)c2ccccc2)c1 (centres unmarked) [Ketoprofen, ketoprofen, reference compound] the “Oedema formation after parent drug” value ([3]; 1 h before carrageenan) was “significantly inhibited oedema formation until 48 h”.
